This is an account of results in ChEMBL document CHEMBL1201862, “PubChem BioAssay data set” (2004).

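Values below derive from 48-hour exposures of cells grown in 96-well plates, with endpoints linearly interpolated between the two concentrations bracketing the appropriate inhibition level. Here, GI50 denotes the concentration required for 50% inhibition of growth.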 Active and inactive are the calls of the source. No stated cut-off is given here; in the data, active = GI50 up to about 1.1 µM and inactive = higher.

Experiment in all cases: NCI anticancer screen, dose series, 48 h
In test [1] the test system is M14.
The subject of test [2] is CCRF-CEM.
The subject of test [3] is NCI-H522.
The test system of test [4] is SF-268.
Test [5] has as its system HOP-92.
Test [6] concerns ACHN.
In test [7] the test system is EKVX.
Test [8] deals with KM12.
Test [9] has as its system UACC-62.
Test [10] has as its system COLO 205.
Test [11] relates to SNB-75.
The test system of test [12] is OVCAR-4.
Test [13] concerns U-251.
The subject of test [14] is SF-539.
The test system of test [15] is RXF 393.
Test [16] deals with OVCAR-8.
In test [17] the test system is SR.
In test [18] the test system is MCF7.
Test [19] deals with PC-3.

With `CCC(CC)NC1=C(NC(C)=O)C(=O)c2ccccc2C1=O`, the GI50 was > 50 µM (inactive) in test [1]; > 50 µM (inactive) in test [2]; > 50 µM (inactive) in [3]; > 50 µM (inactive) in [4]; 0.339 µM (active) in [5]; > 50 µM (inactive) in test [6]. The GI50 in test [7], in test [8], in test [9], in test [10], in test [11] and in test [12] was > 50 µM (inactive) throughout. The GI50 in [13], in test [14], in [15], in test [16] and in [17] was > 50 µM (inactive) in each case.
Regarding `CCN(CC)CCNc1ccc(C)c2sc3ccc(O)cc3c(=O)c12`, the GI50 in [1] is 1.19 µM (inactive); in test [2], 0.0991 µM (active); in test [3], 1.28 µM (inactive); in test [4], 1.8 µM (inactive); in test [5], 1.87 µM (inactive); in test [6] it was 0.201 µM (active). Further, the GI50 in [7] was 10.2 µM (inactive); in [8], 1.43 µM (inactive); in test [9] it was 0.986 µM (active); in test [10], 1.62 µM (inactive); in test [11] it was 1.05 µM (active); in test [12] it was 2.7 µM (inactive). The GI50 was 1.09 µM (active) in test [13]; 1.15 µM (inactive) in test [14]; 2.51 µM (inactive) in test [15]; 1.37 µM (inactive) in test [16]; 0.0149 µM (active) in test [17].
As to `NC(CCCC(N)P(=O)(O)c1ccccc1)P(=O)(O)c1ccccc1` (centres undefined), the GI50 in test [1], in [2], in [3], in test [4], in [5] and in [6] was > 261 µM (inactive) throughout. Also, the GI50 in test [7], in test [8], in test [9], in [10], in [11] and in [12] was > 261 µM (inactive) in each case. For the same molecule, the GI50 in [13], in test [14], in test [15], in test [16] and in [17] was > 261 µM (inactive) throughout.
Consider `CCOC(=O)/C(=C/c1ccc(N(C)C)cc1)N(CC)CC`, for which the GI50 is > 100 µM (inactive) in [1]; 27 µM (inactive) in [2]; 34.3 µM (inactive) in [3]; 76.6 µM (inactive) in test [4]; > 100 µM (inactive) in test [5]; 76.2 µM (inactive) in [6]. In addition, the GI50 is 35.2 µM (inactive) in [7]; 79.8 µM (inactive) in test [8]; 74.5 µM (inactive) in test [9]; > 100 µM (inactive) in [10]; 73.1 µM (inactive) in test [12]; > 100 µM (inactive) in test [13]. Also, the GI50 in test [14] was > 100 µM (inactive); in test [16], > 100 µM (inactive); in test [17], 48.6 µM (inactive).
As to `CC1CC/C(=C\c2ccc(F)cc2)C2=C1C(c1ccc(F)cc1)n1c(s/c(=C\c3ccc(Cl)cc3)c1=O)=N2` (centres undefined), the GI50 in test [1], in test [2], in [18], in [4], in [5] and in test [19] was > 100 µM (inactive) each time. The GI50 in test [6], in test [7], in test [8], in [9], in test [12] and in [13] was > 100 µM (inactive) each time. The GI50 in test [15] and in [16] was > 100 µM (inactive) throughout.
For `Cc1cccc(NC(=O)C(=O)C2C(=O)NC(=O)NC2=O)c1C`, the GI50 in test [1], in test [2], in test [3], in test [4], in test [5] and in [6] was > 100 µM (inactive) each time. In addition, the GI50 in test [7], in test [8], in [9], in [10], in test [11] and in test [12] was > 100 µM (inactive) each time. Moreover, the GI50 in [13], in [14], in [15], in [16] and in [17] was > 100 µM (inactive) throughout.
As to `Oc1ccc2ccccc2c1OCc1nnc(CCCCCCCCc2nnc(COc3c(O)ccc4ccccc34)o2)o1`, the GI50 in [1] was > 100 µM (inactive); in [18] it was 59.2 µM (inactive); in test [3], > 100 µM (inactive); in test [4], 99.3 µM (inactive); in test [5] it was > 100 µM (inactive); in test [19], > 100 µM (inactive). In addition, the GI50 is > 100 µM (inactive) in [6]; > 100 µM (inactive) in test [7]; 25.2 µM (inactive) in test [8]; > 100 µM (inactive) in [9]; > 100 µM (inactive) in test [10]; > 100 µM (inactive) in test [11]. Moreover, the GI50 in [12] was > 100 µM (inactive); in [13], 35.7 µM (inactive); in [15], > 100 µM (inactive).
On to `CCOC(=O)CCC(NC(=O)c1ccc(NCc2ccc3nc(-c4ccccc4)c(Cl)nc3c2)cc1)C(=O)OCC` (centres undefined), for which the GI50 is 16.4 µM (inactive) in test [1]; 25.6 µM (inactive) in [2]; 19.5 µM (inactive) in [3]; 53.8 µM (inactive) in [4]; 9.95 µM (inactive) in [5]; 37.9 µM (inactive) in test [6]. In addition, the GI50 in test [7] was 46.3 µM (inactive); in test [8] it was > 100 µM (inactive); in test [10], 20.5 µM (inactive); in test [11] it was 16.9 µM (inactive); in [12], 20.9 µM (inactive); in test [13] it was 69.7 µM (inactive). The GI50 in [14] is 35.8 µM (inactive); in [15], 48.9 µM (inactive); in test [17], 13.5 µM (inactive).
As to `NC(=O)C(=O)N/N=C(\CC1(O)C(=O)Nc2ccccc21)c1ccc2ccccc2c1` (centres undefined), the GI50 in test [1] was 32.7 µM (inactive); in [2], 20.3 µM (inactive); in [3], 18.7 µM (inactive); in test [4], 40.9 µM (inactive); in [5] it was 39 µM (inactive); in test [6], 32.9 µM (inactive). Besides, the GI50 in [7] was 33.1 µM (inactive); in [8], 21.7 µM (inactive); in [9], 19.8 µM (inactive); in test [10] it was 22.8 µM (inactive); in test [11], 40.6 µM (inactive); in test [12] it was 37.1 µM (inactive). Also, the GI50 in test [13] is 25.9 µM (inactive); in test [14], 48.9 µM (inactive); in test [15], 24.8 µM (inactive); in test [16], 56 µM (inactive); in [17], 18.2 µM (inactive).
`CC(=O)OC12C=CC(=O)N1c1ccccc1C(=O)O2` (centres undefined): the GI50 in test [1], in [2], in [3], in [4], in [5] and in test [6] was > 100 µM (inactive) throughout. For the same molecule, the GI50 in test [7], in [8], in [9], in test [10], in [11] and in test [12] was > 100 µM (inactive) throughout. In addition, the GI50 in test [13], in [14], in test [15], in [16] and in test [17] was > 100 µM (inactive) throughout.
As for `c1ccc2[nH]c3[nH]c4[nH]c5ccccc5[nH]c4[nH]c3[nH]c2c1`, the GI50 in test [1], in test [2], in [18], in test [3], in [4] and in [19] was > 100 µM (inactive) throughout. Besides, the GI50 in test [6] is > 100 µM (inactive); in [7] it was > 100 µM (inactive); in [8], > 100 µM (inactive); in [9], > 100 µM (inactive); in test [10], > 100 µM (inactive); in [11], 21 µM (inactive). For the same molecule, the GI50 in [13], in [14], in [15], in test [16] and in [17] was > 100 µM (inactive) throughout.
Take `COC(=O)C1C(=O)O[C@@H](c2ccc(OC)cc2OC)C1C(=O)OC` (some centres undefined): the GI50 in test [1], in test [2], in test [4], in [5], in test [6] and in test [7] was > 100 µM (inactive) each time. The GI50 in [8], in test [9], in [10], in test [11], in test [12] and in test [13] was > 100 µM (inactive) throughout. The GI50 in test [14], in [15], in [16] and in test [17] was > 100 µM (inactive) in each case.
